According to ChEMBL document CHEMBL1773001, “Broad-spectrum antiviral activity including human immunodeficiency and hepatitis C viruses mediated by a novel retinoid thiosemicarbazone derivative” (Eur J Med Chem, 2011):
Calls of active or inactive are those of the source. No cut-off for these calls is given here.

What was measured:
[1] = Selectivity index, ratio of CC50 for human Huh7ET cells infected with Hepatitis C virus to EC50 for Hepatitis C virus by RT-PCR; type: toxicity, cell-based, Huh-7; conditions: read-out: Selectivity Index
Hepatitis C virus [2] = assay: Antiviral activity against Hepatitis C virus infected in human Huh7ET cells assessed as inhibition of viral replication by luciferase reporter gene assay; type: functional, organism-based, Hepacivirus hominis; conditions: Huh-7
Hepatitis C virus [3] = assay: Antiviral activity against Hepatitis C virus infected in human Huh7ET cells assessed as viral RNA level by RT-PCR; type: functional, organism-based, Hepacivirus hominis; conditions: Huh-7; for Activity: Hepacivirus hominis
[4] = Cytotoxicity against human Huh7ET cells infected with Hepatitis C virus assessed as ribosomal RNA level by RT-PCR; type: cell-based, Huh-7
[5] = Selectivity index, ratio of CC50 for human Huh7ET cells infected with Hepatitis C virus to EC50 for Hepatitis C virus by luciferase reporter gene assay; type: toxicity, cell-based, Huh-7; conditions: read-out: Selectivity Index
[6] = Selectivity index, ratio of CC90 for human Huh7ET cells infected with Hepatitis C virus to EC90 for Hepatitis C virus by luciferase reporter gene assay; type: toxicity, cell-based, Huh-7; conditions: read-out: Selectivity Index
Human betaherpesvirus 5 [7] = assay: Antiviral activity against Human cytomegalovirus (strain AD169) infected in 1 hr pretreated human HFF cells assessed as reduction in viral-induced cytopathic effect by neutral red uptake assay; type: functional, organism-based; conditions: Human betaherpesvirus 5, AD169, HFF
[8] = Cytotoxicity against human HFF cells infected with Human cytomegalovirus AD169 assessed as viable cells by neutral red uptake assay; type: cell-based
[9] = Selectivity index, ratio of CC50 for human HFF cells infected with […] to EC50 for Human cytomegalovirus AD169; type: toxicity, cell-based; conditions: read-out: Selectivity Index
[10] = Antiviral activity against Cowpox virus (Brighton Red) infected in human HFF cells assessed as reduction in viral-induced cytopathic effect by neutral red uptake assay; type: functional, cell-based
Vaccinia virus = assay: Antiviral activity against Vaccinia virus Copenhagen infected in human HFF cells assessed as reduction in viral-induced cytopathic effect by neutral red uptake assay; type: functional, organism-based, Orthopoxvirus vaccinia
[11] = Cytotoxicity against human HFF cells infected with Cowpox virus (Brighton Red) assessed as viable cells by neutral red uptake assay; type: cell-based
[12] = Cytotoxicity against human HFF cells infected with Vaccinia virus Copenhagen assessed as viable cells by neutral red uptake assay; type: cell-based
[13] = Selectivity index, ratio of CC50 for human HFF cells infected with Cowpox virus (Brighton Red) to EC50 for Cowpox virus (Brighton Red); type: toxicity, cell-based; conditions: read-out: Selectivity Index
[14] = Selectivity index, ratio of CC50 for human HFF cells infected with Cowpox virus (Brighton Red) to EC50 for Vaccinia virus Copenhagen; type: toxicity, cell-based; conditions: read-out: Selectivity Index
[15] = Selectivity index, ratio of CC90 for human Huh7ET cells infected with Hepatitis C virus to EC90 for Hepatitis C virus by RT-PCR; type: toxicity, cell-based, Huh-7; conditions: read-out: Selectivity Index
Human alphaherpesvirus 3 [16] = assay: Antiviral activity against Varicella-zoster virus Ellen infected in 1 hr pretreated human HFF cells assessed as reduction in viral-induced cytopathic effect by neutral red uptake assay; type: functional, organism-based; conditions: Human alphaherpesvirus 3, Ellen
[17] = Cytotoxicity against human HFF cells infected with Varicella-zoster virus Ellen assessed as viable cells by neutral red uptake assay; type: cell-based
Hepatitis C virus [18] = assay: Antiviral activity against Hepatitis C virus infected in human Huh7ET cells assessed as inhibition of viral replication at 20 uM by luciferase reporter gene assay; type: functional, Hepacivirus hominis; conditions: Huh-7
Human alphaherpesvirus 3 [19] = assay: Antiviral activity against Varicella-zoster virus Ellen infected in human HFF cells assessed as inhibition of viral replication after 1 hr by plaque reduction assay; type: functional, organism-based; conditions: Human alphaherpesvirus 3, Ellen
Human betaherpesvirus 5 [20] = assay: Antiviral activity against Human cytomegalovirus (strain AD169) infected in human HFF cells assessed inhibition of viral replication after 1 hr by plaque reduction assay; type: functional, organism-based; conditions: Human betaherpesvirus 5, AD169, HFF
[21] = Cytotoxicity against human HFF cells infected with Varicella-zoster virus Ellen assessed as viable cells after 1 hr by plaque reduction assay; type: cell-based
[22] = Cytotoxicity against human HFF cells infected with Human cytomegalovirus AD169 assessed as viable cells after 1 hr by plaque reduction assay; type: cell-based
[23] = Selectivity index, ratio of CC50 for human HFF cells infected with […] to EC50 for Varicella-zoster virus Ellen after 1 hr by plaque reduction assay; type: toxicity, cell-based; conditions: read-out: Selectivity Index
[24] = Selectivity index, ratio of CC50 for human HFF cells infected with […] to EC50 for Human cytomegalovirus AD169 after 1 hr by plaque reduction assay; type: toxicity, cell-based; conditions: read-out: Selectivity Index
[25] = test system: Human immunodeficiency virus 1; assay: Antiviral activity against Human immunodeficiency virus 1 LAV1 assessed as reduction in RT activity by [3H]-dTTP incorporation assay; type: functional, organism-based
[26] = Cytotoxicity against human PBMC infected with Human immunodeficiency virus 1 LAV1 by MTS assay; type: cell-based
[27] = Selectivity index, ratio of CC50 for human PBMC infected with Human immunodeficiency virus 1 LAV1 to EC50 for Human immunodeficiency virus 1 LAV1
[28] = Selectivity index, ratio of CC50 for human HFF cells infected with […] to EC50 for Varicella-zoster virus Ellen; type: toxicity, cell-based; conditions: read-out: Selectivity Index
[29] = Orthopoxvirus vaccinia, Copenhagen, HFF
[30] = Orthopoxvirus vaccinia, Copenhagen, HFF, read-out: EC50

Row | Compound | selectivity ratio [1] | EC50 (Hepatitis C virus [2]) | EC90 (Hepatitis C virus [2]) | EC50 (Hepatitis C virus [3]) | EC90 (Hepatitis C virus [3]) | CC50 [4] | CC90 [4] | selectivity ratio [5] | selectivity ratio [6] | EC50 (Human betaherpesvirus 5 [7]) | EC90 (Human betaherpesvirus 5 [7]) | CC50 [8] | EC50 [10] | EC90 [10] | EC90 (Vaccinia virus; [29]) | EC50 (Vaccinia virus; [30]) | CC50 [11] | CC50 [12] | selectivity ratio [13] | selectivity ratio [14] | further results
1 | NC(=S)N/N=C/c1ccc(OC(F)(F)F)cc1 | 18 | 0.08 µM | 0.5 µM | 0.08 µM | 0.61 µM | 1.44 µM | ≥ 5.08 µM | 111 | > 40 | > 60 µM | > 60 µM | 290 µM | 54.3 µM | > 300 µM | > 300 µM | 250 µM | > 300 µM | > 300 µM | > 5.5 | > 1.2 | selectivity ratio [9]: < 4.8; selectivity ratio [15]: 8.3
2 | NC(=S)N/N=C/c1ccc(Br)cc1F | 48.8 | 0.28 µM | 5.93 µM | 0.25 µM | > 20 µM | ≥ 12.2 µM | > 20 µM | > 71.4 | > 3.4 | > 300 µM | > 300 µM | > 300 µM | 115 µM | 294 µM | 239 µM | 110 µM | > 300 µM | > 300 µM | > 2.6 | > 2.7 | EC50 (Human alphaherpesvirus 3 [16]): > 300 µM; EC90 (Human alphaherpesvirus 3 [16]): > 300 µM; CC50 [17]: > 300 µM
3 | CCCCCCCCCCCCCCS/C(N)=N/N=C/c1ccc(N(C)C)cc1 |  |  |  |  |  |  |  |  |  |  |  |  |  |  |  |  |  |  |  |  | inhibition at 20 µM (Hepatitis C virus [18]): 31.4%; Activity (Hepatitis C virus [3]): inactive
4 | CC1=C(/C=C/C(C)=C/C=C/C(C)=C/C=N/[N-]C(=S)[N-]C(=S)[N-]/N=C/C=C(C)/C=C/C=C(C)/C=C/C2=C(C)CCCC2(C)C)C(C)(C)CCC1.O.[Na+].[Na+].[Na+] | 31 | 0.85 µM | 4 µM | 0.36 µM | 1.97 µM | 11.2 µM | > 20 µM | 15.2 | > 5 |  |  |  | > 2.4 µM | > 2.4 µM | > 2.4 µM | > 2.4 µM | 11.8 µM | 11.8 µM | < 4.9 | > 4.9 | EC50 (Human alphaherpesvirus 3 [19]): 4.7 µM; EC90 (Human alphaherpesvirus 3 [19]): 17 µM; EC50 (Human betaherpesvirus 5 [20]): 2.4 µM; EC90 (Human betaherpesvirus 5 [20]): > 4 µM; CC50 at 1 h [21]: 33.3 µM; CC50 at 1 h [22]: 13.6 µM; selectivity ratio at 1 h [23]: 7.1; selectivity ratio at 1 h [24]: 5.7; EC50 [25]: 1.4 µM; EC90 [25]: 6.5 µM; CC50 [26]: 28.5 µM; Selectivity Index [27]: 5.2; selectivity ratio [15]: > 10.2
5 | Nc1nc2c(ncn2COC(CO)CO)c(=O)[nH]1 [GANCICLOVIR] |  |  |  |  |  |  |  |  |  | 0.04 µM |  |  |  |  |  |  |  |  |  |  | EC90 (Vaccinia virus; Orthopoxvirus vaccinia): inactive; EC50 (Vaccinia virus; hff): Not Active
6 | Nc1ccn(C[C@@H](CO)OCP(=O)(O)O)c(=O)n1 [CIDOFOVIR] |  |  |  |  |  |  |  |  |  |  |  |  | 6.7 µM | 18.4 µM | 20 µM | 9.8 µM | > 317 µM | > 317 µM | > 47.3 | > 32.3 | 
7 | Nc1nc2c(ncn2COCCO)c(=O)[nH]1 [ACYCLOVIR] |  |  |  |  |  |  |  |  |  |  |  |  |  |  |  |  |  |  |  |  | EC50 (Human alphaherpesvirus 3 [16]): 1.1 µM; CC50 [17]: > 100 µM; selectivity ratio [28]: > 90.9; EC90 (Vaccinia virus; Orthopoxvirus vaccinia): inactive; EC50 (Vaccinia virus; hff): Not Active
8 | CN(C)c1ccc(/C=N/N=c2\[nH]c(-c3ccc(F)cc3)cs2)cc1 |  | 6.32 µM | > 20 µM |  |  |  |  | > 3.2 |  | > 300 µM | > 300 µM | > 300 µM | 36 µM | > 300 µM | 84.9 µM | 73.6 µM | > 300 µM | > 300 µM | > 8.3 | > 4.1 | Activity (Hepatitis C virus [3]): inactive; EC50 (Human alphaherpesvirus 3 [16]): 16.6 µM; EC90 (Human alphaherpesvirus 3 [16]): 26.5 µM; CC50 [17]: > 300 µM; selectivity ratio [28]: > 18.1
9 | Cc1cn([C@H]2C[C@H](N=[N+]=[N-])[C@@H](CO)O2)c(=O)[nH]c1=O [ZIDOVUDINE] |  |  |  |  |  |  |  |  |  |  |  |  |  |  |  |  |  |  |  |  | EC50 [25]: 0.0044 µM; EC90 [25]: 0.031 µM; CC50 [26]: > 100 µM; Selectivity Index [27]: >22727
10 | Nc1nc(O)c2ncn(COC(CO)CO)c2n1 [GANCICLOVIR] |  |  |  |  |  |  |  |  |  |  |  | > 100 µM |  |  |  |  |  |  |  |  | selectivity ratio [9]: > 2500
